Experimental data taken from patent US11420977B2, “Late SV40 (LSF) inhibitors” (Trustees of Boston University, priority 2018, dated 2022).

What was measured:
LSF-tubulin interaction = target: T1, LSF-tubulin interaction (Homo sapiens, UniProt Q12800); assay: Co-immunoprecipitation of LSF with endogenous α-tubulin from HEK293T cells; type: cell-based; conditions: 2.5 μM for 24 hr
T1 construct: endogenous in cells; host or cells: HEK293T
Protocol: HEK293T, HeLa and COS7 cells were cultured in DMEM media supplemented with 10% FBS. FQI1 treatment of HEK293T cells was for 24 hours at 37° C. with 2.5 μM FQI1. Immunoprecipitation (IP) and immunofluorescence experiments were carried out as described previously. For the immunoprecipitation, 1 mg of total HEK293T cellular extract was incubated with 5 μg of either anti-SET8 antibody (Active Motif) or anti-LSF antibody (Millipore). The immunoprecipitates were blotted with anti-α tubulin, anti-β tubulin (Sigma T9026, T8328), anti-SET8 or anti-LSF (BD) antibodies as per the manufacturer's dilution recommendations. Cellular extracts were also immunoprecipitated with normal IgG (Cell Signaling Technology) as a negative control for all IP experiments.

RPE-hTERT Flp-In cells = assay: FQI34/FQI1 comparison, mitotic defects in RPE-hTERT Flp-In cells; type: cell-based; conditions: one hour treatment; FIG. 33
Protocol: RPE-hTERT Flp-In cells were incubated in serum-free DMEM:F12 media for 24 hours to synchronize the cells in G0/G1. Cells were stimulated to reenter the cell cycle with DMEM:F12 media containing 10% Fetal Bovine Serum. After 24 hours, the cells were treated with DMSO (vehicle), FQI1 (2.5 μM or 5 μM), or FQI34 (250 nM or 500 nM) for one hour. The cells were washed twice with 1×Phosphate-buffered Saline and fixed with PHEM (3.7% formaldehyde in 100 mM PIPES at pH 6.8, 10 mM EGTA, 1 mM magnesium chloride, and 0.2% Triton X-100) for 10 minutes at room temperature. The fixed cells were stained for α-tubulin using a mouse anti-α-tubulin antibody (Fisher #62204). Secondary antibodies were: DMSO/FQI1 samples—goat anti-mouse IgG conjugated to Alexa 546 (Thermo Fisher #A11003); FQI34 samples—goat anti-mouse IgG conjugated to Texas Red (Fisher #T-862). DNA was stained with Hoechst 33342. Cells were imaged using a Nikon NiE using the 40× objective and images were captured using a DS-Qi1 Mc 12 bit camera. Scale bars and merged images were generated using Fiji software.

tubulin = target: T2, tubulin (Sus scrofa, UniProt P02550+P02554); assay: Tubulin polymerization assay (Cytoskeleton kit); type: biochemical; conditions: FIG. 4C
T2 construct: purchased Cytoskeleton
Protocol: Quantitative determination of tubulin polymerization in vitro was carried out using the in vitro polymerization assay kits from either Millipore (17-10194) or Cytoskeleton (FQI1 assay only) according to the manufacturer's conditions. For the Millipopre kit, thawed tubulin was mixed with purified His-LSF, His-SET8 proteins or FQI1 in 70 μL final volumes of 1×PB-GTP solutions, and the 96-well plate was transferred to the pre-warmed (37° C.) SpectraMax M5 Microplate Reader to read UV-Visible Absorbance. Tubulin polymerization was followed by measuring the turbidity variation (light scattering) every 1 min at 350 nm for 1 hr.

[1] = target: T3, SET8 methylation of Histone H4 (Homo sapiens, UniProt Q9NQR1); assay: In vitro methylation assay, SET8 methylation of Histone H4; type: biochemical; conditions: histone H4 as substrate (FIG. 5C)
T3 construct: using full-length or overlapping segments of SET8 fused to GST; made in house; host or cells: E. coli
Protocol: (§1) One μg of recombinant GST-SET8 (in 50% glycerol) and 2 μg of the purified tubulin (MP-Bioscience) were incubated with radioactively labeled [3H] AdoMet at room temperature for overnight. As indicated, recombinant His-LSF protein or FQI1 inhibitor were added to the reaction. Samples were separated by electrophoresis through a 10% Tricine Gel (Invitrogen) and the gel was stained with Coomassie Brilliant Blue and incubated with EN3HANCE (PerkinElmer) solution. The gel was dried and exposed to autoradiography film for 1 week. Two […] of each peptide and 2 μg of purified SET8 or full-length SETD2 (Active Motif) were incubated with radioactively labeled [3H] AdoMet at room temperature overnight. Samples were spotted onto P81 filters (Whatman 3698325) and the filter were washed 3 times with 0.3 M ammonium bicarbonate. The ratio of incorporated [^3H]CH3 was determined using liquid scintillation counting.

synchronized HCC cells = assay: Mitotic phenotypes in synchronized HCC cells; type: cell-based; conditions: cells synchronized at G1/S border, released in presence of 5 μM
Protocol: FIG. 4A is a graph showing tubulin polymerization assay in the presence of low concentrations of LSF (Millipore kit). FIG. 4B are bands showing co-immunoprecipitation of LSF with endogenous α-tubulin from HEK293T cells which was disrupted upon treatment with 2.5 μM FQI1 for 24 hr. FIG. 4C is a graph showing tubulin polymerization assay in the presence of FQI1 and FQI2 (Cytoskeleton kit). Nocodazole was used as a control to inhibit polymerization. […] Cells were synchronized at the G1/S border and released in presence of 5 μM FQI1. Fixed cells were stained with α-tubulin antibody and DAPI.

synchronized HeLa cells = assay: Mitotic defects in synchronized HeLa cells; type: cell-based, human
Protocol: FIG. 8B is an image showing DAPI staining of synchronized cells, treated as indicated in panel FIG. 8A and analyzed at 20× magnification. Samples were collected at 0, 3, 6, and 19 hours post release from a G1/S block in presence of DMSO or FQI1. Insets represent individual cells in more detail. Arrows represent cells in metaphase or prometaphase, respectively, at the 6 hour time point. FIG. 8C is a bar graph showing quantification from 75-100 total cells analyzed by DNA and α-tubulin morphologies, indicating cells containing multi-asters, at 9 hours post release from a G1/S block. Data are representative of 2 experiments. FIG. 8D is a graph showing that the mitotic arrest mediated by limited FQI1 treatment of synchronized cells is reversible. Synchronized cells were released in the presence of 5 μM of FQI1 from a G1/S block. Ten hours after the release, the cells were washed and then either incubated with media alone or re-incubated with media in the presence of 5 μM FQI1. Samples were collected 24 hours post release. Fixed cells were stained with propidium iodide to analyze DNA content. […]

HCC tumors = conditions: cited from earlier work
aggressive HCC cell line = conditions: in vitro; cited from earlier work
[2] = system: tubulin methylation by SET8; assay: In vitro methylation assay, tubulin methylation by SET8; type: biochemical, porcine; conditions: with 862 nM LSF (FIG. 9B)
Protocol: as §1

[3] = target: T4, tubulin methylation by SET8 (Sus scrofa, UniProt M3V851); assay: as above; type: biochemical, porcine; conditions: at 100 μM (FIG. 5B lane 4); no LSF added
T4 construct: consistent with the presence of LSF in the tubulin preparations; purchased MP-Bioscience; host or cells: porcine brain (tubulin); GST-SET8 recombinant
Protocol: as §1

T4 sequence (M3V851 1-502): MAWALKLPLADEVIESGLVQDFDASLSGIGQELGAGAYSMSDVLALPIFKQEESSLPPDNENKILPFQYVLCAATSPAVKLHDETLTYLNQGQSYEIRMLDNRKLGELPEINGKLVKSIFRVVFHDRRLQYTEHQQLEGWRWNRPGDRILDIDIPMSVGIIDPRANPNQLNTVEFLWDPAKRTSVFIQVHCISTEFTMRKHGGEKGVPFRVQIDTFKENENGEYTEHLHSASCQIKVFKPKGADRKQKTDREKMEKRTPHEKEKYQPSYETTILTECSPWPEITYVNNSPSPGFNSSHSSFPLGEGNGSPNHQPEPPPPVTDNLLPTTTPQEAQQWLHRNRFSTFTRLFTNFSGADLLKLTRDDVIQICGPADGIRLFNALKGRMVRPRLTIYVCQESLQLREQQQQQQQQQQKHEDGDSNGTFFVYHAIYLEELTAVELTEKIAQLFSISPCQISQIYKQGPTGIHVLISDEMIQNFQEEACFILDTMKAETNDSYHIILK
T1 sequence (Q12800 whole entry): as the sequence (M3V851 1-502) above, with N168T, P302S counted along it
T2 sequence (P02550 whole entry): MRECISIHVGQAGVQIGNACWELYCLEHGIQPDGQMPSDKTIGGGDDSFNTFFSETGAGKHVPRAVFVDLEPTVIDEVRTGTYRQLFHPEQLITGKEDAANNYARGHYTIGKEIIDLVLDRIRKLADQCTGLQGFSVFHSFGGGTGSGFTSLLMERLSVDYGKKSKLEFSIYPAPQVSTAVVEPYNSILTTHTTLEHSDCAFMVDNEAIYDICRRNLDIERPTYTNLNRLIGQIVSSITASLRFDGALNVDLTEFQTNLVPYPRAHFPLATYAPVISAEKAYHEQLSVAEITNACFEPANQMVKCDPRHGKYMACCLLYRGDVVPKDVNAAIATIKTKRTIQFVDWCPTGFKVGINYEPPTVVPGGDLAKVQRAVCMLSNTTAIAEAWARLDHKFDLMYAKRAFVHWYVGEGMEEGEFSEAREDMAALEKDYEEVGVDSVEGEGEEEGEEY
T2 sequence (P02554 whole entry): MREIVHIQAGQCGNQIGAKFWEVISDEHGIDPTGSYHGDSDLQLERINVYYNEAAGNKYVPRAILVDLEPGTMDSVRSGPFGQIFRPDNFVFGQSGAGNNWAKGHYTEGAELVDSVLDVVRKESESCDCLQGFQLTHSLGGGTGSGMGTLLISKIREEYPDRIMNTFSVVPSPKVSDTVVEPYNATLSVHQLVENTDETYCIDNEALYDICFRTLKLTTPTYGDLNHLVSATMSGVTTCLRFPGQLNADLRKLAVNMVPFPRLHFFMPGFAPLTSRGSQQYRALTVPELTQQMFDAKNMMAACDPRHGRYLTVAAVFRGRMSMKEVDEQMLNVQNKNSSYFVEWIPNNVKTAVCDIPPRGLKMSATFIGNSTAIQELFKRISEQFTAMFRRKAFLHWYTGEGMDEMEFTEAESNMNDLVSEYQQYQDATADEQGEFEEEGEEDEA
T3 sequence (Q9NQR1 1-352 isoform Q9NQR1-2): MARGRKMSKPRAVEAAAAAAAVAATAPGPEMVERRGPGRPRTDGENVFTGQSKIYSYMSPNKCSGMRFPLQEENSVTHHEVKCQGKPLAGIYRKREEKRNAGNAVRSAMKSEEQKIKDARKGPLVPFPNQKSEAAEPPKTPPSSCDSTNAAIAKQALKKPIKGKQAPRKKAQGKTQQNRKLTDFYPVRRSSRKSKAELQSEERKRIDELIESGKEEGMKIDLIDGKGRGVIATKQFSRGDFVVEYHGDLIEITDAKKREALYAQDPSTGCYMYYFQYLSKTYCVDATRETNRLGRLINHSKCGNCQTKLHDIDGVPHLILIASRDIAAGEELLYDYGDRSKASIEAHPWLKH

For `CCOc1ccccc1C1CC(=O)Nc2cc3c(cc21)OCO3` (stereo not drawn) [FQI1], which “co-immunoprecipitation of LSF with endogenous α-tubulin” value (LSF-tubulin interaction) is on record?
The value was “disrupted”.

What about the “chromosome and spindle phenotype (DNA and α-tubulin immunofluorescence)” value (RPE-hTERT Flp-In cells) of the same molecule?
The value was “condensed, but nonaligned chromosomes and disrupted spindles”.

What about the “effect on tubulin polymerization in vitro” value (tubulin) of the same molecule?
The value was “inhibited tubulin polymerization”.

And the “effect on SET8 methylation of Histone H4” value [1]?
The value was “does not affect”.

What about the mitotic phenotype (synchronized HCC cells) of the same molecule?
Its mitotic phenotype is “abnormal mitotic phenotypes”.

And the “reversibility of mitotic arrest after washout” value (synchronized HeLa cells; 5 μM for 10 hours, then washout, 24 hours post release)?
The value was “reversible”.

What about the multi-aster formation (synchronized HeLa cells; synchronized cells, short treatment prior to mitosis (FIG. 8C)) of the same molecule?
Its multi-aster formation is “concentration-dependent increase in multi-aster formation”.

And the “toxicity to normal tissues” value (HCC tumors; mouse HCC models)?
The value was “no observable toxicity to normal tissues”.

What about the “tumor growth in mouse HCC models” value (HCC tumors; multiple mouse HCC models) of the same molecule?
The value was “significantly inhibits tumor growth”.

What about the “apoptosis in HCC cell line” value (aggressive HCC cell line) of the same molecule?
Its value is “induces apoptosis”.

And the “effect on enhancement of tubulin methylation by exogenously added LSF” value [2]?
Its value is “inhibited the ability of exogenously added LSF to enhance methylation of tubulin by SET8”.

And the “decrease of tubulin methylation by SET8” value [3]?
The value was roughly 3 fold.
